Laboratory results published in paper PMC12748989 (Nature Communications, 2025).

Columns and labels:
[1] = test system: MDA-MB-231 cells
[2] = test system: PBMC; conditions: 12.5 µM

| Compound | Average (percentage cell inhibition), Dmastoparan MDA-MB231 12.5uM [1] | Average (percentage cell inhibition), Mastoparan PBMC [2] |
| --- | --- | --- |
| CC[C@H](C)[C@H](N)C(=O)N[C@@H](CC(N)=O)C(=O)N[C@@H](CC(C)C)C(=O)N[C@@H](CCCCN)C(=O)N[C@@H](C)C(=O)N[C@@H](CC(C)C)C(=O)N[C@@H](C)C(=O)N[C@@H](CCCCN)C(=O)N[C@@H](CC(C)C)C(=O)N[C@@H](C)C(=O)N[C@@H](CCCCN)C(=O)N[C@@H](CCCCN)C(=O)N[C@H](C(=O)N[C@@H](CC(C)C)C(N)=O)[C@@H](C)CC [K8] | 44.6441% | 13.8127% |
| CC[C@H](C)[C@H](N)C(=O)N[C@@H](CC(N)=O)C(=O)N[C@@H](CC(C)C)C(=O)N[C@@H](CCCCN)C(=O)N[C@@H](C)C(=O)N[C@@H](CC(C)C)C(=O)N[C@@H](C)C(=O)N[C@@H](C)C(=O)N[C@@H](C)C(=O)N[C@@H](C)C(=O)N[C@@H](CCCCN)C(=O)N[C@@H](CCCCN)C(=O)N[C@H](C(=O)N[C@@H](CC(C)C)C(N)=O)[C@@H](C)CC [A9] | 23.1985% | -3.746% |
| CC[C@H](C)[C@H](NC(=O)[C@H](CCCCN)NC(=O)[C@H](CCCCN)NC(=O)[C@H](C)NC(=O)[C@H](CC(C)C)NC(=O)[C@H](C)NC(=O)[C@H](C)NC(=O)[C@H](CC(C)C)NC(=O)[C@H](C)NC(=O)[C@H](CCCCN)NC(=O)[C@H](CC(C)C)NC(=O)[C@H](CC(N)=O)NC(=O)[C@@H](N)CO)C(=O)N[C@@H](CC(C)C)C(N)=O [S1] | 31.5771% | -13.6432% |
| CC[C@H](C)[C@H](NC(=O)[C@H](CCCCN)NC(=O)[C@H](CCCCN)NC(=O)[C@H](C)NC(=O)[C@H](CC(C)C)NC(=O)[C@H](C)NC(=O)[C@H](C)NC(=O)[C@H](CC(C)C)NC(=O)[C@H](C)NC(=O)[C@H](CCCCN)NC(=O)[C@H](CC(C)C)NC(=O)[C@H](CC(N)=O)NC(=O)[C@@H](N)CCCNC(=N)N)C(=O)N[C@@H](CC(C)C)C(N)=O [R1] | 31.3783% | -2.103% |
| CC[C@H](C)[C@H](N)C(=O)N[C@@H](CC(N)=O)C(=O)N[C@@H](CC(C)C)C(=O)N[C@@H](CCCCN)C(=O)N[C@@H](C)C(=O)N[C@@H](CC(C)C)C(=O)N[C@@H](C)C(=O)N[C@@H](C)C(=O)N[C@@H](CC(C)C)C(=O)N[C@@H](C)C(=O)N1CCC[C@H]1C(=O)N[C@@H](CCCCN)C(=O)N[C@H](C(=O)N[C@@H](CC(C)C)C(N)=O)[C@@H](C)CC [P11] | -0.07814% | -9.695% |
| CC[C@H](C)[C@H](N)C(=O)N[C@@H](CC(N)=O)C(=O)N[C@@H](CC(C)C)C(=O)N[C@@H](CCCCN)C(=O)N[C@@H](Cc1ccc(O)cc1)C(=O)N[C@@H](CC(C)C)C(=O)N[C@@H](C)C(=O)N[C@@H](C)C(=O)N[C@@H](CC(C)C)C(=O)N[C@@H](C)C(=O)N[C@@H](CCCCN)C(=O)N[C@@H](CCCCN)C(=O)N[C@H](C(=O)N[C@@H](CC(C)C)C(N)=O)[C@@H](C)CC [Y5] | 43.7779% | 12.3024% |
| CC[C@H](C)[C@H](N)C(=O)N[C@@H](CC(N)=O)C(=O)N[C@@H](CC(C)C)C(=O)N[C@@H](CCCCN)C(=O)N[C@@H](C)C(=O)N[C@@H](CC(C)C)C(=O)N[C@@H](C)C(=O)N[C@@H](C)C(=O)N[C@@H](CC(C)C)C(=O)N[C@@H](C)C(=O)N[C@@H](CCCCN)C(=O)N[C@@H](CCCCN)C(=O)N[C@H](C(=O)N[C@@H](Cc1ccc(O)cc1)C(N)=O)[C@@H](C)CC [Y14] | 29.2623% | -0.4376% |
| CC[C@H](C)[C@H](N)C(=O)N[C@@H](CC(N)=O)C(=O)N[C@@H](CC(C)C)C(=O)N[C@@H](CCCCN)C(=O)N[C@@H](C)C(=O)N[C@@H](CC(C)C)C(=O)N[C@@H](C)C(=O)N[C@@H](CCC(=O)O)C(=O)N[C@@H](CC(C)C)C(=O)N[C@@H](C)C(=O)N[C@@H](CCCCN)C(=O)N[C@@H](CCCCN)C(=O)N[C@H](C(=O)N[C@@H](CC(C)C)C(N)=O)[C@@H](C)CC [E8] | 39.5903% | 13.1597% |
| CC[C@H](C)[C@H](N)C(=O)N[C@@H](CC(N)=O)C(=O)N[C@@H](CC(C)C)C(=O)N[C@@H](CCCCN)C(=O)N[C@@H](C)C(=O)N[C@@H](CC(C)C)C(=O)N[C@@H](C)C(=O)N[C@@H](C)C(=O)N[C@@H](CC(C)C)C(=O)N[C@@H](C)C(=O)N[C@@H](CCCCN)C(=O)N[C@@H](Cc1c[nH]c2ccccc12)C(=O)N[C@H](C(=O)N[C@@H](CC(C)C)C(N)=O)[C@@H](C)CC [W12] | 64.637% | 73.0011% |
| CC[C@H](C)[C@H](NC(=O)[C@H](CCCCN)NC(=O)[C@H](CCCCN)NC(=O)[C@H](C)NC(=O)[C@H](CC(C)C)NC(=O)[C@H](C)NC(=O)[C@H](C)NC(=O)[C@H](CC(C)C)NC(=O)[C@H](C)NC(=O)[C@H](CCCCN)NC(=O)[C@H](CC(C)C)NC(=O)[C@H](CC(N)=O)NC(=O)[C@@H](N)CCC(N)=O)C(=O)N[C@@H](CC(C)C)C(N)=O [Q1] | 44.2177% | 13.6421% |
| CC[C@H](C)[C@H](N)C(=O)N[C@@H](CC(N)=O)C(=O)N[C@@H](CC(C)C)C(=O)N[C@@H](CCCCN)C(=O)N[C@@H](C)C(=O)N[C@@H](CC(C)C)C(=O)N[C@@H](C)C(=O)N[C@@H](C)C(=O)N[C@@H](Cc1c[nH]cn1)C(=O)N[C@@H](C)C(=O)N[C@@H](CCCCN)C(=O)N[C@@H](CCCCN)C(=O)N[C@H](C(=O)N[C@@H](CC(C)C)C(N)=O)[C@@H](C)CC [H9] | 18.6976% | -4.349% |
| CC[C@H](C)[C@H](N)C(=O)N[C@@H](CC(N)=O)C(=O)N[C@@H](CC(C)C)C(=O)N[C@@H](CCCCN)C(=O)N[C@@H](C)C(=O)N[C@@H](CC(C)C)C(=O)N[C@@H](C)C(=O)N[C@@H](C)C(=O)N[C@@H](CC(C)C)C(=O)N[C@@H](C)C(=O)N[C@@H](Cc1c[nH]c2ccccc12)C(=O)N[C@@H](CCCCN)C(=O)N[C@H](C(=O)N[C@@H](CC(C)C)C(N)=O)[C@@H](C)CC [W11] | 74.1582% | 64.4734% |
| CC[C@H](C)[C@H](N)C(=O)N[C@@H](CC(N)=O)C(=O)NCC(=O)N[C@@H](CCCCN)C(=O)N[C@@H](C)C(=O)N[C@@H](CC(C)C)C(=O)N[C@@H](C)C(=O)N[C@@H](C)C(=O)N[C@@H](CC(C)C)C(=O)N[C@@H](C)C(=O)N[C@@H](CCCCN)C(=O)N[C@@H](CCCCN)C(=O)N[C@H](C(=O)N[C@@H](CC(C)C)C(N)=O)[C@@H](C)CC [G3] | 40.6724% | 8.745% |
| CC[C@H](C)[C@H](N)C(=O)N[C@@H](CC(N)=O)C(=O)N[C@@H](CC(C)C)C(=O)N[C@@H](CCCCN)C(=O)N[C@@H](C)C(=O)N[C@@H](CC(C)C)C(=O)N[C@@H](CC(C)C)C(=O)N[C@@H](C)C(=O)N[C@@H](CC(C)C)C(=O)N[C@@H](C)C(=O)N[C@@H](CCCCN)C(=O)N[C@@H](CCCCN)C(=O)N[C@H](C(=O)N[C@@H](CC(C)C)C(N)=O)[C@@H](C)CC [L7] | 74.1173% | 35.4322% |
| CC[C@H](C)[C@H](N)C(=O)N[C@@H](CC(N)=O)C(=O)N[C@@H](CC(C)C)C(=O)N[C@@H](CCCCN)C(=O)N[C@@H](C)C(=O)N[C@@H](CC(C)C)C(=O)N[C@@H](C)C(=O)N[C@@H](C)C(=O)N[C@@H](CC(C)C)C(=O)N[C@@H](C)C(=O)N[C@@H](CCCCN)C(=O)N[C@@H](CCCCN)C(=O)N[C@H](C(=O)N[C@H](C(N)=O)C(C)C)[C@@H](C)CC [V14] | 42.849% | 3.082% |
| CC[C@H](C)[C@H](N)C(=O)N[C@@H](CC(N)=O)C(=O)N[C@@H](CC(C)C)C(=O)N[C@@H](CC(N)=O)C(=O)N[C@@H](C)C(=O)N[C@@H](CC(C)C)C(=O)N[C@@H](C)C(=O)N[C@@H](C)C(=O)N[C@@H](CC(C)C)C(=O)N[C@@H](C)C(=O)N[C@@H](CCCCN)C(=O)N[C@@H](CCCCN)C(=O)N[C@H](C(=O)N[C@@H](CC(C)C)C(N)=O)[C@@H](C)CC [N4] | 50.001% | 12.5207% |
| CC[C@H](C)[C@H](N)C(=O)N[C@@H](CC(N)=O)C(=O)N[C@@H](CC(C)C)C(=O)N[C@@H](CCCCN)C(=O)N[C@@H](C)C(=O)N[C@@H](CC(C)C)C(=O)N[C@@H](C)C(=O)N[C@@H](C)C(=O)NCC(=O)N[C@@H](C)C(=O)N[C@@H](CCCCN)C(=O)N[C@@H](CCCCN)C(=O)N[C@H](C(=O)N[C@@H](CC(C)C)C(N)=O)[C@@H](C)CC [G9] | 11.2187% | 7.302% |
| CC[C@H](C)[C@H](N)C(=O)N[C@@H](CC(N)=O)C(=O)N[C@@H](CC(C)C)C(=O)N[C@@H](CCCCN)C(=O)N[C@@H](CC(C)C)C(=O)N[C@@H](CC(C)C)C(=O)N[C@@H](C)C(=O)N[C@@H](C)C(=O)N[C@@H](CC(C)C)C(=O)N[C@@H](C)C(=O)N[C@@H](CCCCN)C(=O)N[C@@H](CCCCN)C(=O)N[C@H](C(=O)N[C@@H](CC(C)C)C(N)=O)[C@@H](C)CC [L5] | 46.6396% | 25.5295% |
| CC[C@H](C)[C@H](N)C(=O)N[C@@H](CC(N)=O)C(=O)N[C@@H](CC(C)C)C(=O)N[C@@H](CCCCN)C(=O)N[C@@H](C)C(=O)N[C@@H](CC(C)C)C(=O)N[C@@H](C)C(=O)N[C@@H](C)C(=O)N[C@@H](CC(C)C)C(=O)N[C@@H](C)C(=O)N[C@@H](CCCCN)C(=O)N[C@@H](CCC(=O)O)C(=O)N[C@H](C(=O)N[C@@H](CC(C)C)C(N)=O)[C@@H](C)CC [E12] | 21.4723% | 4.97% |
